Common to all, as to assay type: binding
Experiment [1] addresses human MDM4 protein (amino acids 2-185) (Homo sapiens (Human), UniProt O15151). In words: TR-FRET p53-MDM4 Assay 1. The following applies: 2.5 nM MDM4-biotinylated, 10 nM Cy5-p53 peptide. The protocol:
(§1) Time Resolved Fluorescence Energy Transfer (TR-FRET) Assay
(§2) The inhibition of p53-MDM2 and p53-MDM4 interactions is measured by time resolved fluorescence energy transfer (TR-FRET). Fluorescence energy transfer (or Foerster resonance energy transfer) describes an energy transfer between donor and acceptor fluorescent molecules. For this assay, human MDM2 protein (amino acids 2-188) and human MDM4 protein (amino acids 2-185), tagged with a C-terminal biotin moiety, are used in combination with a Europium labeled streptavidin (Perkin Elmer, Inc., Waltham, Mass., USA) serving as the donor fluorophore. The p53 derived, Cy5 labeled peptide Cy5-TFSDLWKLL (p53 aa18-26) is the energy acceptor. Upon excitation of the donor molecule at 340 nm, binding interaction between MDM2 or MDM4 and the p53 peptide induces energy transfer and enhanced response at the acceptor emission wavelength at 665 nm.
(§3) Disruption of the formation of the p53-MDM2 or p53-MDM4 complex due to an inhibitor molecule binding to the p53 binding site of MDM2 or MDM4 results in increased donor emission at 620 nm. The ratiometric FRET assay readout is calculated from the raw data of the two distinct fluorescence signals measured in time resolved mode (fluorescence 665 nm/fluorescence 620 nm×1000).
(§4) The test is performed in white 384-well plates (Greiner Bio-One, reference 781207) in a total volume of 60 μL by adding 1 μL of compounds tested at different concentrations diluted in 100% DMSO (1.7% final DMSO concentration) in reaction buffer (PBS, 125 mM NaCl, 0.001% Novexin (consists of carbohydrate polymers), designed to increase the solubility and stability of proteins; Expedeon Ltd., Cambridgeshire, United Kingdom), 0.01% Gelatin, 0.01% 0.2%, Pluronic F-127 (block copolymer from ethylenoxide and propyleneoxide), 1 mM DTT). After addition of 1.25 nM MDM2-biotinylated or 2.5 nM MDM4-biotinylated (internal preparations, both MDM2 and MDM4 are biotinylated at the C-terminal of the peptide construct), and 0.625 nM Europium labeled streptavidin (Perkin Elmer), the solution is pre-incubated for 15 minutes at room temperature, then 10 nM Cy5-p53 peptide (internal preparation, the Cy5 dye is directly bound to the N-terminal part of p53 peptide construct) is added before an incubation at room temperature for 15 minutes prior to reading the plate. For measurement of samples, a Victor II microplate reader (Perkin Elmer) is used with the following settings: Excitation 340 nm, Emission Donor 620 nm and Emission Acceptor 665 nm. IC50 values are calculated by curve fitting using XLfit. If not specified, reagents are purchased from Sigma-Aldrich Chemie GmBH, Buchs, Switzerland.
(§5) This assay was used to evaluate compounds displaying inhibition of p53-MDM2 interaction and p53-MDM4 interaction at IC50s of 0.005 to 50 μM (p53-MDM2 Assay 1 and p53-MDM4 Assay 1, respectively). For selected compounds displaying IC50s between […] on MDM2, a slightly modified assay is used with the following adaptations: 0.1 nM MDM2, 0.1 nM Europium labeled streptavidin and Tecan genios Pro is used as a microplate reader for the fluorescence measurements (p53-MDM2 Assay 2).

Experiment [2] addresses T1, human MDM2 protein (amino acids 2-188) (Homo sapiens (Human), UniProt Q00987). Description: TR-FRET p53-MDM2 Assay 2 (modified: 0.1 nM MDM2). The following applies: 0.1 nM MDM2, 0.1 nM Europium labeled streptavidin, Tecan genios Pro reader. The protocol: as §1, §2, §3, §4, §5
Experiment [3] addresses T1, human MDM2 protein (amino acids 2-188). Description: TR-FRET p53-MDM2 Assay 1. The following applies: 1.25 nM MDM2-biotinylated, 10 nM Cy5-p53 peptide. The protocol: as §1, §2, §3, §4, §5
A general note: TR-FRET usually uses a lanthanide donor and a delayed reading to cut background.

The IC50 is the midpoint of a concentration-inhibition curve.

T1 sequence (Q00987 2-188): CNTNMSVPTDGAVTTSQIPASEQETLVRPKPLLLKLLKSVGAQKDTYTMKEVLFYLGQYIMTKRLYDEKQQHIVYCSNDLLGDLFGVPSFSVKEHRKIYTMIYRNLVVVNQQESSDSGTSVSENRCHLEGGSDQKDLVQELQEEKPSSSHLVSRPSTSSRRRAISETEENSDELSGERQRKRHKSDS
Sequence of human MDM4 protein (amino acids 2-185) (O15151 2-185): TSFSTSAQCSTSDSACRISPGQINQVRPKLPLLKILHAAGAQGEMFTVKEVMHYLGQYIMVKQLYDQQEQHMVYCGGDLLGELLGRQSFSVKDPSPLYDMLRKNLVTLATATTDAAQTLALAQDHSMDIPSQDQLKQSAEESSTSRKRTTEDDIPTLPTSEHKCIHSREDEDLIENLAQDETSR

For `COc1ccccc1-c1nc2c(n1C(C)C)C(c1ccc(Cl)cc1)N(c1cccc(Cl)c1F)C(=O)N2` (stereo not drawn) [Example 1, 1-(3-Chloro-2-fluoro-phenyl)-6-(4-chloro-phenyl)-7-isopropyl-8-(2-methoxy-phenyl)-1,3,6,7-tetrahydro-purin-2-one], the results for the IC50 in experiment [1], in experiment [2] and in experiment [3] were 1.51 µM, 0.882 nM and 0.002 µM, respectively.
`COc1ccncc1-c1nc2c(n1C(C)C)C(c1ccc(Cl)cc1C)N(c1cc(Cl)ccc1C)C(=O)N2` (stereo not drawn) [Example 4, 6-(4-Chloro-2-methylphenyl)-1-(5-chloro-2-methylphenyl)-7-isopropyl-8-(4-methoxypyridin-3-yl)-6,7-dihydro-1H-purin-2(3H)-one]: the IC50 in experiment [1] came to 16.7 µM; in experiment [3], 0.0031 µM.
Taken in the same sequence, the figures for `COc1ccccc1-c1nc2c(n1C(C)C)C(c1ccc(Cl)cc1C)N(c1cc(Cl)ccc1C)C(=O)N2` (stereo not drawn) [Example 3, 6-(4-Chloro-2-methylphenyl)-1-(5-chloro-2-methylphenyl)-7-isopropyl-8-(2-methoxyphenyl)-6,7-dihydro-1H-purin-2(3H)-one] were 1.45 µM and 0.0018 µM.
For `COc1ccncc1-c1nc2c(n1C(C)C)C(c1ccc(Cl)cc1)N(c1cccc(Cl)c1F)C(=O)N2` (stereo not drawn) [Example 6, 1-(3-Chloro-2-fluorophenyl)-6-(4-chlorophenyl)-7-isopropyl-8-(4-methoxypyridin-3-yl)-6,7-dihydro-1H-purin-2(3H)-one] the same measures were 14 µM and 0.0085 µM.
In the case of `COc1ccccc1-c1nc2c(n1C(C)C)C(c1ccc(Cl)cc1C)N(c1cccc(Cl)c1F)C(=O)N2` (stereo not drawn) [Example 2, 1-(3-Chloro-2-fluoro-phenyl)-6-(4-chloro-2-methyl-phenyl)-7-isopropyl-8-(2-methoxy-phenyl)-1,3,6,7-tetrahydro-purin-2-one], the IC50 worked out at 2.13 µM in experiment [1], 0.779 nM in experiment [2] and 0.0021 µM in experiment [3].

The values are drawn from US9403827B2, “Substituted purinone compounds” (NOVARTIS AG, priority 2013, dated 2016).
